Reference: ChEMBL document CHEMBL1143521, “Synthesis and antitumor activity of 7-ethyl-9-alkyl derivatives of camptothecin” (Bioorg Med Chem Lett, 2005)

Key:
[1] = tested on: Bel-7402; test: Inhibitory concentration against human Bel-7402 liver cancer cell line; type: functional, cell-based
[2] = tested on: HCT-116; test: Inhibitory concentration against human HCT116 colon cancer cell line; type: functional, cell-based
[3] = Lethal toxicity against mouse tumor sarcoma-180 model after intraperitoneal administration of 2.5 mg/kg dose expressed as number of deaths out of 10 mice; type: organism-based; parameters: dose 2.5 mg/kg, route intraperitoneal; details: in vivo, ip
[4] = tested on: Mus musculus; test: Percent tumor-weight inhibition in mouse tumor sarcoma-180 model after intraperitoneal administration of 2.5 mg/kg dose in comparison with control mice; type: functional
[5] = tested on: Mus musculus; test: Average tumor weight in mouse tumor sarcoma-180 model after intraperitoneal administration of 2.5 mg/kg dose; type: functional
[6] = tested on: Mus musculus; test: Percent change in body-weight of mouse tumor sarcoma-180 model after intraperitoneal administration of 2.5 mg/kg dose; type: functional
[7] = tested on: Mus musculus; test: Percent change in body-weight of mouse tumor sarcoma-180 model after intraperitoneal administration of 5 mg/kg dose; type: functional
[8] = tested on: Mus musculus; test: Average tumor weight in mouse tumor sarcoma-180 model after intraperitoneal administration of 5 mg/kg dose; type: functional
[9] = Lethal toxicity against mouse tumor sarcoma-180 model after intraperitoneal administration of 5 mg/kg dose expressed as number of deaths out of 10 mice; type: organism-based; parameters: dose 5 mg/kg, route intraperitoneal; details: in vivo, ip
[10] = tested on: Mus musculus; test: Percent tumor-weight inhibition in mouse tumor sarcoma-180 model after intraperitoneal administration of 5 mg/kg dose in comparison with control mice; type: functional
[11] = tested on: Mus musculus; test: Average tumor weight in mouse tumor sarcoma-180 model after intraperitoneal administration of 75 mg/kg dose; type: functional
[12] = tested on: Mus musculus; test: Percent change in body-weight of mouse tumor sarcoma-180 model after intraperitoneal administration of 75 mg/kg dose; type: functional
[13] = Lethal toxicity against mouse tumor sarcoma-180 model after intraperitoneal administration of 75 mg/kg dose expressed as number of deaths out of […]; type: organism-based; parameters: dose 75 mg/kg, route intraperitoneal; details: in vivo, ip
[14] = tested on: Mus musculus; test: Percent tumor-weight inhibition in mouse tumor sarcoma-180 model after intraperitoneal administration of 75 mg/kg dose in comparison with control mice; type: functional

Q: With `C=CCc1c(OC)ccc2nc3c(c(CC)c12)Cn1c-3cc2c(c1=O)COC(=O)[C@]2(O)CC` as the molecule, how does the IC50 [1] read?
A: 2.16 µM

Q: What about the IC50 [2] of the same molecule?
A: 0.068 µM

Q: Which IC50 [1] does the source give for `CCCc1c(O)ccc2nc3c(c(CC)c12)Cn1c-3cc2c(c1=O)COC(=O)[C@]2(O)CC` here?
A: 3.01 µM

Q: And the IC50 [2]?
A: 0.012 µM

Q: With `CC[C@@]1(O)C(=O)OCc2c1cc1n(c2=O)Cc2cc3c(CN(C)C)c(O)ccc3nc2-1` [TOPOTECAN] as the molecule, how does the IC50 [1] read?
A: 3.98 µM

Q: And the IC50 [2]?
A: 0.1 µM

Q: For `CC[C@@]1(O)C(=O)OCc2c1cc1n(c2=O)Cc2cc3cc(O)ccc3nc2-1` [HYDROXYCAMPTOTHECIN], which IC50 [1] is on record?
A: 2.47 µM

Q: What about the IC50 [2] of the same molecule?
A: 0.148 µM

Q: Which results are given for `CCCc1c(OC)ccc2nc3c(c(CC)c12)Cn1c-3cc2c(c1=O)COC(=O)[C@]2(O)CC`?
A: IC50 [1]: 3.84 µM; IC50 [2]: 0.153 µM

Q: Which IC50 [1] does the source give for `C=CCc1c(O)ccc2nc3c(c(CC)c12)Cn1c-3cc2c(c1=O)COC(=O)[C@]2(O)CC` here?
A: 2.75 µM

Q: What about the Lethal toxicity [3] of the same molecule?
A: 0

Q: And the IC50 [2]?
A: 0.014 µM

Q: What about the TWI [4] of the same molecule?
A: 81.2%

Q: What about the TW [5] of the same molecule?
A: 0.62

Q: What about the BWC [6] of the same molecule?
A: 9%

Q: Which IC50 [1] does the source give for `CCc1c2c(nc3ccc(O)cc13)-c1cc3c(c(=O)n1C2)COC(=O)[C@]3(O)CC` [7-ETHYL-10-HYDROXYCAMPTOTHECIN] here?
A: 3.19 µM

Q: What about the IC50 [2] of the same molecule?
A: 0.007 µM

Q: What about the BWC [7] of the same molecule?
A: 45%

Q: What about the TW [8] of the same molecule?
A: 1.93

Q: And the Lethal toxicity [9]?
A: 0

Q: And the TWI [10]?
A: 41.5%

Q: What does the source list for `CCc1c(O)ccc2nc3c(c(CC)c12)Cn1c-3cc2c(c1=O)COC(=O)[C@]2(O)CC`?
A: IC50 [1]: 2.01 µM; IC50 [2]: 0.023 µM

Q: For `O=c1[nH]cc(F)c(=O)[nH]1` [FLUOROURACIL], which TW [11] is on record?
A: 1.52

Q: And the BWC [12]?
A: 74%

Q: What about the Lethal toxicity [13] of the same molecule?
A: 0

Q: And the TWI [14]?
A: 53.9%

Q: Which results are given for `CCc1c(OC)ccc2nc3c(c(CC)c12)Cn1c-3cc2c(c1=O)COC(=O)[C@]2(O)CC`?
A: IC50 [1]: 2.4 µM; IC50 [2]: 0.061 µM
